pIC50: −log10 of the molar value. Where two headings read alike, the source gives them in different places.

Common to all, as to type: cell-based, human
The test system of one assay is SMN2 mRNA. The assay can be described thus: RT-qPCR splicing assay, SMN2 canonical junction (CJ) mRNA. Conditions: Homo sapiens. Summed up:
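Canonical-junction transcript levels in compound-treated A673 or K562 cells (24 h, up to 10 uM final) were determined from lysates by RT-qPCR with housekeeping-gene normalization.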

The next assay deals with MYB. The assay can be described thus: HiBiT protein abundance assay, MYB HiBiT K562 cell line. As to conditions: 24 hours, top dose 10 μM. Summed up: (§1)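 Endogenous targets in K562 knock-in lines carried a HiBiT tag and were treated for 24 h at 37 °C with 10-point 3-fold dilutions (top 10 μM final, DMSO ≤0.25%). Abundance was read as lytic Nano-Glo HiBiT luminescence. IC50 came from a four-parameter logistic fit of normalized response.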

In another assay the test system is HTT. The experiment in a line: HiBiT protein abundance assay, HTT HiBiT K562 cell line. As to conditions: 24 hours, top dose 10 μM. Summed up: as §1
The test system of the next assay is Target C. The assay can be described thus: HiBiT protein abundance assay, Target C (Promega Nano-Glo HiBiT Lytic Detection System, knock-in K562 cell line). As to conditions: Homo sapiens, K562, 24 h, HiBiT K562 cell line, 24 hours, top dose 10 μM; read-out: Effect on protein abundance, Target C (IC50 category). The method, boiled down: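 HiBiT knock-in K562 cells (10,000/well) were treated for 24 h at 37 °C with a 10-point 3-fold dilution series, top final concentration 10 μM, DMSO ≤0.25%. Lytic HiBiT luminescence was read, normalized to unmodified K562 and DMSO-treated controls, and IC50 was interpolated from a four-parameter logistic fit.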

[1] abbreviates: canonical junction qPCR panel, Table 5, read-out: SMN2 (decrease in CJ mRNA levels, IC50).
Setting [2] is: HiBiT K562 cell line, read-out: Effect on protein abundance, MYB (IC50 category).
Setting [3] is: HiBiT K562 cell line, read-out: Effect on protein abundance, HTT (IC50 category).
Setting [4] is: HiBiT lytic detection, modified K562 cells, read-out: Effect on protein abundance, MYB (IC50).
Setting [5] is: HiBiT lytic detection, modified K562 cells, read-out: Effect on protein abundance, HTT (IC50).

For the molecule `Cc1c(O)c(-c2ncc3c(=O)n(C4CCNC4)ccc3n2)cc2cn(C)nc12` (stereo in doubt) [Compound 1439, (6R)-2-(6-hydroxy-2,7-dimethyl-indazol-5-yl)-6-pyrrolidin-3-yl-pyrido[4,3-d]pyrimidin-5-one], the pIC50 with SMN2 mRNA (setting [1]) is over 7.00; in the assay on MYB (setting [2]) it was 6.00 to 7.00; in the assay with HTT (setting [3]), 5.00 to 6.00; in the assay with Target C, under 5.00.

For `Cc1c(O)c(-c2ncc3c(=O)n(C4CCNC4)ccc3n2)cc2cn(C)nc12` (stereo in doubt) [Compound 1440, (6S)-2-(6-hydroxy-2,7-dimethyl-indazol-5-yl)-6-pyrrolidin-3-yl-pyrido[4,3-d]pyrimidin-5-one], the pIC50 with SMN2 mRNA (setting [1]) is over 7.00; with MYB (setting [2]) it was 6.00 to 7.00; in the assay on HTT (setting [3]), 5.00 to 6.00; in the assay with Target C, under 5.00.

In the case of `Cc1c(O)c(-c2ncc3c(=O)n([C@@H]4CC5CC4CN5)ccc3n2)cc2cn(C)nc12` (stereo in doubt) [Compound 1443, 6-[(1R,4R,5R)-2-azabicyclo[2.2.1]heptan-5-yl]-2-(6-hydroxy-2,7-dimethyl-indazol-5-yl)pyrido[4,3-d]pyrimidin-5-one], the pIC50 with SMN2 mRNA (setting [1]) is over 7.00; with MYB (setting [2]), 6.00 to 7.00; in the assay on HTT (setting [3]), 5.00 to 6.00; with Target C, 5.00 to 6.00.

Take `Cc1c(O)c(-c2ncc3c(=O)n(C4C[C@H]5C[C@@H]4CN5)ccc3n2)cc2cn(C)nc12` (stereo in doubt) [Compound 1444, 6-[(1R,4R,5R)-2-azabicyclo[2.2.1]heptan-5-yl]-2-(6-hydroxy-2,7-dimethyl-indazol-5-yl)pyrido[4,3-d]pyrimidin-5-one]: the pIC50 with SMN2 mRNA (setting [1]) is over 7.00; in the assay with MYB (setting [2]), 6.00 to 7.00; in the assay on HTT (setting [3]), 6.00 to 7.00; in the assay with Target C it was 6.00 to 7.00.

In the case of `Cc1c(O)c(-c2ncc3c(=O)n([C@@H]4C[C@H]5C[C@@H]4CN5)ccc3n2)cc2cn(C)nc12` (stereo in doubt) [Compound 1446, 6-[(1R,4R,5R)-2-azabicyclo[2.2.1]heptan-5-yl]-2-(6-hydroxy-2,7-dimethyl-indazol-5-yl)pyrido[4,3-d]pyrimidin-5-one], the pIC50 with SMN2 mRNA (setting [1]) was 6.00 to 7.00; with MYB (setting [2]) it was 5.00 to 6.00; with HTT (setting [3]), under 5.00; with Target C, under 5.00.

For `Cc1cn2cc(-c3ncc4c(=O)n([C@H]5CCNC5)ccc4n3)cc(F)c2n1` [Compound 1220], the pIC50 was over 7.00 in the assay with SMN2 mRNA (Table 5 panel, canonical junction qPCR, compound concentration having 50% response in CJ decrease, read-out: SMN2 IC50 (decrease in CJ mRNA levels)); 6.00 to 7.00 with MYB (setting [2]); 6.00 to 7.00 in the assay with HTT (setting [3]).

For the molecule `Cc1cn2nc(-c3ccc4c(=O)n(C5CCNCC5)ncc4n3)cc(C)c2n1` [Compound 1247], the pIC50 with SMN2 mRNA (setting [1]), in the assay with MYB (setting [4]) and in the assay with HTT (setting [5]) was over 7.00 each time.

For `Cn1cc2cc(-c3ccc4c(=O)n(C5CCNC6(CC6)C5)ncc4n3)c(O)cc2n1` (centres unmarked) [Compound 1306], the pIC50 in the assay on SMN2 mRNA (setting [1]) is over 7.00; in the assay on MYB (setting [4]), 6.00 to 7.00; with HTT (setting [5]) it was 6.00 to 7.00.

As to `CN1CCC(n2ncc3nc(-c4cc5cn(C)nc5cc4O)ccc3c2=O)CC1` [Compound 1307], the pIC50 is 6.00 to 7.00 in the assay with SMN2 mRNA (setting [1]), 5.00 to 6.00 in the assay on MYB (setting [4]) and 5.00 to 6.00 with HTT (setting [5]).

On to `CCN1CCC(n2ncc3nc(-c4cc(C)c5nc(C)cn5n4)ccc3c2=O)CC1` [Compound 1308], for which the pIC50 with SMN2 mRNA (setting [1]) was over 7.00; with MYB (setting [4]) it was 6.00 to 7.00; in the assay with HTT (setting [5]), over 7.00.

On to `Cc1cn2nc(-c3ccc4c(=O)n(C5CCN(CCF)CC5)ncc4n3)cc(C)c2n1` [Compound 1309], for which the negative-log IC50 (pIC50) in the assay on SMN2 mRNA (setting [1]) is over 7.00; in the assay on MYB (setting [4]), 6.00 to 7.00; with HTT (setting [5]), 6.00 to 7.00.

On to `CCN1CCC(n2ncc3nc(-c4cc5cn(C)nc5cc4O)ccc3c2=O)CC1` [Compound 1310], for which the values for the pIC50 in the assay with SMN2 mRNA (setting [1]), with MYB (setting [4]) and in the assay with HTT (setting [5]) were 6.00 to 7.00, 5.00 to 6.00 and 5.00 to 6.00, respectively.

With `Cc1cn2nc(-c3ccc4c(=O)n(C5CCN(C)CC5)ncc4n3)cc(C)c2n1` [Compound 1311], the pIC50 in the assay on SMN2 mRNA (setting [1]) is over 7.00; with MYB (setting [4]), 6.00 to 7.00; with HTT (setting [5]), 6.00 to 7.00.

The values above are taken from patent publication US20250332173A1, “COMPOUNDS AND METHODS FOR MODULATING NUCLEIC ACID SPLICING” (REMIX THERAPEUTICS INC., priority 2021, published 2025).
